Assay results published in patent US5510260A, “Prolactin secreting cell line and method of obtaining the same” (Unversity of Virginia Patent Foundation, priority 1993, dated 1996).
No end group written: not given here.

Experiments:
MMQ cells [1] = test: cAMP levels in the MMQ cells; assay type: cell-based, rat; conditions: for effect on the dopaminergic inhibition of stimulated cAMP: pertussis toxin as pre-treatment of the cells
Text: Further studies included measurement of the cAMP levels in the MMQ cells.

[2] = tested on: adherent cells of pituitary tumor 7315a
Text: This isolation involved the use of the solid tumor which was dispersed with collagenase and cultured in RPMI-1640 containing normal horse and calf serum. As previously mentioned, one population is adherent to plastic-ware and the other is non-adherent.

MMQ cells [3] = test: 45Ca2+ uptake/efflux in MMQ (floater) cells; assay type: cell-based, rat
Method: The MMQ cell line was derived from the pituitary tumor 7315a, a cell line that secretes both prolactin and adrenocorticotrophin (ACTH). The MMQ cell line was obtained by cutting a 7315a tumor into small pieces and then dispersing the pieces into a population of single cells by means of incubating tumor pieces with collagenase. These cells were incubated in tissue culture flasks containing RPMI1640, 5% NHS, 5% FCS. […] The floater cells, which we have designated MMQ, were small granular and irregularly shaped in contrast to the cells that adhered to the flasks.

MMQ cells [4] = tested on: MMQ cells
Text: The non-adherent cell has been designated MMQ.
The clonal cell line MMQ, was derived from the non-adherent cells which secrete only prolactin and no detectable amounts of ACTH or any other pituitary hormones.

With `O=C(CCCN1CCC(O)(c2ccc(Cl)cc2)CC1)c1ccc(F)cc1` [Haloperidol] the “effect on the dopaminergic inhibition of stimulated cAMP” value (MMQ cells [1]) was “blocked the dopaminergic effects”.

In the case of `C[C@H](N)C(=O)NCC(=O)N[C@H]1CSSC[C@@H](C(=O)O)NC(=O)[C@H](CO)NC(=O)[C@H]([C@@H](C)O)NC(=O)[C@H](Cc2ccccc2)NC(=O)[C@H]([C@@H](C)O)NC(=O)[C@H](CCCCN)NC(=O)[C@H](Cc2c[nH]c3ccccc23)NC(=O)[C@H](Cc2ccccc2)NC(=O)[C@H](Cc2ccccc2)NC(=O)[C@H](CC(N)=O)NC(=O)[C@H](CCCCN)NC1=O` [Somatostatin], the “attenuation of forskolin and VIP-stimulated cAMP generation” value (MMQ cells [1]; SRIF 100 nM) is reported as 30%.

In the case of `NCCc1ccc(O)c(O)c1` [dopamine], the inhibition at 1 µM (MMQ cells [1]; Rattus norvegicus, 1 μM of dopamine, read-out: attenuation of forskolin and VIP-stimulated cAMP generation) is reported as 50%, the “effect on VIP-, forskolin- and choleratoxin-increased cellular cAMP levels” value (MMQ cells [1]; dopamine 50-1000 nM) is reported as “inhibited each response in a concentration-dependent manner” and the “effect on prolactin release stimulated by maitotoxin” value [2] is reported as “not in the adherent ones”. For the same compound, the “effect on maitotoxin-induced efflux of 45Ca2+” value (MMQ cells [3]; addition of dopamine, MMQ cells) was “blocked”, the “effect of dopamine on prolactin-release after long-term culture” value (MMQ cells [4]; MMQ cells after more than a year in culture) was “has not been altered” and the “inhibition of maitotoxin-induced prolactin release” value (MMQ cells [4]; clonal MMQ cells) was 50-80%. For the same compound, the “effect on prolactin release stimulated by maitotoxin” value (MMQ cells [4]; non-adherent cells) was “inhibits prolactin release”.

With `C=C[C@@]1(C)CC(=O)[C@]2(O)[C@@]3(C)[C@@H](O)CCC(C)(C)[C@@H]3[C@H](O)[C@H](OC(C)=O)[C@@]2(C)O1` [forskolin] the “cellular cAMP levels” value (MMQ cells [1]) was “increased”.

For `C=CC[C@H](C)[C@H](C)C[C@@H](O)[C@H](O)[C@@H]1CC[C@@]2(C)O[C@@]3(C)C[C@@]4(C)O[C@H]5/C=C\C[C@H]6O[C@H]7C[C@H]8O[C@H]9C[C@@]%10(C)O[C@@](C)([C@@H]%11CC[C@H]%12O[C@@]%13(C)C[C@H]%14O[C@@]%15(C)C[C@H]%16O[C@@]%17(C)C[C@@H](O)[C@H]([C@@H]%18O[C@H]%19[C@H](O)[C@@H](O)[C@H](C[C@H](O)C[C@@H](O)[C@@H]%20O[C@H]%21[C@H](O)[C@@H](O)[C@H]([C@@H]%22O[C@@H]%23[C@H](O)[C@H]%24O[C@H]%25C[C@H]%26O[C@@H](C[C@H](O)[C@@H](O)[C@H]%27O[C@H]%28[C@H](O)[C@H]%29O[C@H]%30C[C@H]%31O[C@H]%32[C@@H](O)[C@@H](O)[C@H]([C@H](C)[C@H](O)[C@H](C)CC[C@H](OS(=O)(=O)O)[C@H](O)[C@H](C)C[C@@H](O)C(=C)/C(C)=C/CO)O[C@@H]%32[C@H](O)C[C@]%31(C)O[C@@H]%30C[C@]%29(C)O[C@@H]%28C[C@H]%27O)[C@H](OS(=O)(=O)O)[C@H](O)[C@@H]%26O[C@@H]%25C[C@@H]%24O[C@H]%23[C@H](O)[C@H]%22O)O[C@H]%21C[C@H]%20O)O[C@H]%19C[C@H]%18O)O[C@@H]%17[C@H](O)[C@]%16(C)O[C@@H]%15CC[C@]%14(C)O[C@@H]%13C[C@@H]%12O%11)[C@H](O)C[C@@H]%10O[C@]9(C)CC[C@]8(C)O[C@]7(C)C[C@@H]6O[C@@H]5C[C@@H]4O[C@@H]3C[C@@H]2O1` [maitotoxin], the “response of MMQ cells to maitotoxin (45Ca2+)” value (MMQ cells [3]; MMQ floater cells loaded with 45Ca2+) was “modest response”.

“Vasoactive intestinal peptide (HSDAVFTDNYTRLRKQMAVKKYLNSILN; ends and bridges not checked; UniProt P01282 125-152, looked up) [peptide that increases cellular cAMP levels]” was tested, and the “cellular cAMP levels” value (MMQ cells [1]) was “increased”.

With choleratoxin the “cellular cAMP levels” value (MMQ cells [1]) was “increased”.

For pertussis toxin, the “effect on the dopaminergic inhibition of stimulated cAMP” value (MMQ cells [1]) was “blocked the dopaminergic effects”.
